Reference: publication PMC4026384, “Antibacterial Activity of THAM Trisphenylguanide against Methicillin-Resistant Staphylococcus aureus” (PLoS ONE, 2014)
pIC50: −log10 of the molar value.

How the values were obtained:
Acanthamoeba castellanii = assay: Toxicity against eukaryotic pathogen; format: cell-based; details: data not shown
all of the pathogens = assay: MIC against all of the pathogens (LB); format: cell-based; details: complex medium (LB), actively growing bacteria
Description: Minimum inhibitory concentration (MIC) values were determined for those compounds showing the most antibacterial activity in the bacterial viability assays (see Supplemental Materials) against each of the strains of bacteria using a microdilution method in 96 well plates with LB media according to guidelines published by the British Society for Antimicrobial Chemotherapy. Minimum bactericidal concentrations (MBC) were determined by plating 10 µL and 100 µL from each well showing no signs of growth after overnight incubation of the MIC plates and determining the minimum concentration showing a 3-log reduction of viable bacteria. MIC and MBC were also determined in cation-adjusted Mueller-Hinton broth (Hardy Diagnostics, Santa Maria, CA) for some compounds and strains.

Balb/c mice = assay: In vivo toxicity study (serum chemistry and enzyme levels); set-up: species or system mouse; details: i.p. 0.1 ml of 10, 50, 100 µM, blood two hours post injection, versus mock-treated control
Description: THAM-3ΦG was chosen for the in vivo challenge experiments, because it had the best combination of antibacterial activity and low toxicity (Tables 1–3). In vivo toxicity studies were carried out prior to the start of experiments in mice challenged with MRSA. Groups of three Balb/c mice each were injected i.p. with 0.1 ml of 0, 10, 50, and 100 µM THAM-3ФG in PBS. The highest in vivo dose represented 0.36 mg/kg. Blood was drawn from the mice at two hours post injection and submitted for a standard panel of serum chemistry and enzyme levels. The chemistry and enzyme levels were not elevated for any of the concentrations tested compared to the mock-treated control group (data not shown).

MRSA = assay: In vivo MRSA challenge (intraperitoneal infection); set-up: species or system BALB/c mice; details: mice, 8 h post infection
Description: Three groups of BALB/c mice (8 mice per group) were infected by intraperitoneal (i.p.) injection with 5×10^7 MRSA in 100 µl sterile PBS [16], [17]. The first treatment group was injected i.p. with 100 µl of 100 µM THAM trisphenylguanide in PBS immediately after infection. The second group was injected i.p. with 100 µl of 100 µM THAM trisphenylguanide one hour post-infection. The control group was injected with 100 µl PBS. At eight hours post-infection, all mice were euthanized. An intraperitoneal lavage using 10 ml PBS was performed to recover bacteria within the peritoneal cavity and plated at multiple dilutions on TSA plates. The heart and kidney were removed for evaluation of systemic infection. Briefly, tissues were weighed, homogenized, and plated at multiple dilutions on TSA plates. TSA plates were incubated overnight at 37°C at 5% CO2 and CFU enumerated the next day.

[1] = 100 µM i.p. one hour after MRSA infection

| SMILES | pIC50 (Acanthamoeba castellanii) | MIC (all of the pathogens) [µg/mL] | serum chemistry and enzyme levels (Balb/c mice) | reduction in bacterial burden in both organs (kidneys, heart) and IP lavage (MRSA; 100 µM i.p. immediately after MRSA challenge, versus PBS) | reduction of mean CFUs in IP lavages (MRSA; [1]) [fold] | reduction of mean CFUs in heart (MRSA; [1]) [fold] | reduction of mean CFUs in kidneys (MRSA; [1]) [fold] |
| --- | --- | --- | --- | --- | --- | --- | --- |
| [H]/N=C(\N/C(=N/[H])NCCCCCCNC(=N)NC(=N)Nc1ccc(Cl)cc1)Nc1ccc(Cl)cc1 [Chlorhexidine, chlorhexidine, reference compound] | ~5.00 | ≤ 16 | – | – | – | – | – |
| N=C(NCCCCCCNc1nc(NCCCCCCNC(=N)Nc2ccccc2)nc(NCCCCCCNC(=N)Nc2ccccc2)n1)Nc1ccccc1 [THAM-3ΦG, Trishexylaminomelamine trisphenylguanide] | – | – | not elevated | approximately 3 log | 2 | 3 | 20 |
